Consider 5 molecules from ChEMBL document CHEMBL1135012, “Reductively activated disulfide prodrugs of paclitaxel” (Bioorg Med Chem Lett, 2002).

The nature of data set [1]: Compound was evaluated for its cytotoxicity against L2987 lung carcinoma cells. Format: functional, cell-based. The note with it: Homo sapiens.
Data set [2] is described as follows: Compound along with dithiothreitol (DTT) was evaluated for its cytotoxicity against L2987 lung carcinoma cells. Format: functional, cell-based. Particulars: Homo sapiens.
Data set [3] can be described thus: Percentage tumor cure rate in when treated with 125 mg/Kg dose in athymic nude mice. It is filed as functional, Mus musculus.
Data set [4] in a line: The half-life period for the release of paclitaxel after cyclization was determined for the compound. It is filed as ADME.
The nature of data set [5]: Dose required for the compound to elicit the Antitumor activity: No effective activity. It is filed as functional.
Data set [6] in a line: Maximum Tolerated Dose required for the compound to regress the tumors for the Antitumor activity: No effective activity. Format: functional.

What is called IC50 is the concentration at which inhibition is half-maximal. Regarding `CC(=O)O[C@H]1C(=O)[C@@]2(C)[C@H]([C@H](OC(=O)c3ccccc3)[C@]3(O)C[C@H](OC(=O)[C@H](OC(=O)C(C)(C)CCSSC[C@H](C)C(=O)N4CCC[C@@H]4C(=O)O)[C@@H](NC(=O)c4ccccc4)c4ccccc4)C(C)=C1C3(C)C)[C@]1(OC(C)=O)CO[C@@H]1C[C@@H]2O`, the 50% inhibitory concentration (IC50) is 130 µM in data set [1] and 2.3 µM in data set [2]. This molecule gave a Tumor cure in data set [3] of 60%. In addition, the T1/2 in data set [4] came out at 25 min.

With `CC(=O)O[C@H]1C(=O)[C@@]2(C)[C@H]([C@H](OC(=O)c3ccccc3)[C@]3(O)C[C@H](OC(=O)[C@H](OC(=O)C(C)(C)CCSSC4OC(CO)C(O)C(O)C4O)C(NC(=O)c4ccccc4)c4ccccc4)C(C)=C1C3(C)C)[C@]1(OC(C)=O)CO[C@@H]1C[C@@H]2O` (stereo partly drawn), the IC50 amounted to 5.7 µM in data set [1] and 0.2 µM in data set [2]. The molecule also returned a Dose in data set [5] of 85 mg/kg. This molecule also displayed a T1/2 in data set [4] of 12 min.

`CC(=O)O[C@H]1C(=O)[C@@]2(C)[C@H]([C@H](OC(=O)c3ccccc3)[C@]3(O)C[C@H](OC(=O)[C@H](OC(=O)C(C)(C)CCSSc4ccccn4)[C@@H](NC(=O)c4ccccc4)c4ccccc4)C(C)=C1C3(C)C)[C@]1(OC(C)=O)CO[C@@H]1C[C@@H]2O`: the results for the IC50 in data set [1] and in data set [2] were 6.2 µM and 0.2 µM, respectively. In data set [5], this molecule gave a Dose of 125 mg/kg. This molecule yielded a T1/2 in data set [4] of 4 min.

Turning to `CC(=O)O[C@H]1C(=O)[C@@]2(C)[C@H]([C@H](OC(=O)c3ccccc3)[C@]3(O)C[C@H](OC(=O)[C@H](OC(=O)C(C)(C)CCSSCC(NC(=O)CCC(N)C(=O)O)C(=O)NCC(=O)O)[C@@H](NC(=O)c4ccccc4)c4ccccc4)C(C)=C1C3(C)C)[C@]1(OC(C)=O)CO[C@@H]1C[C@@H]2O` (stereo partly drawn), the IC50 was 10.1 µM in data set [1] and 0.4 µM in data set [2]. Further, the Dose in data set [5] is 150 mg/kg. Also, the T1/2 in data set [4] is on record as > 60 min.

Molecule `CC(=O)O[C@H]1C(=O)[C@@]2(C)[C@H]([C@H](OC(=O)c3ccccc3)[C@]3(O)C[C@H](OC(=O)[C@H](O)[C@@H](NC(=O)c4ccccc4)c4ccccc4)C(C)=C1C3(C)C)[C@]1(OC(C)=O)CO[C@@H]1C[C@@H]2O` [PACLITAXEL] showed an IC50 in data set [1] of 0.2 µM. This molecule showed a Dose in data set [6] of 30 mg/kg.
